These results are taken from patent US20230159606A1, “PHARMACEUTICAL COMPOSITIONS FOR GLUCAGON AND GLP-1 CO-AGONIST PEPTIDES” (MEDIMMUNE LIMITED, priority 2019, published 2023).

SMILES strings stand for the structures.

The test system of one data set is all microorganisms. The data set is described as follows: Preservative efficacy test (PET), overall compliance with European Pharmacopeia / USP criteria. Type of data set: cell-based.
Data set [1] is described as follows: Visual inspection: gel formation, particles, shaking and freeze/thaw stress. Type of data set: physicochemical. How it is done:
Samples were stressed by temperature and freeze/thaw and analyzed for purity, aggregation, visual inspection, and for the presence of sub-visible particles.
In the freeze/thaw studies, the formulation was tested in the presence or absence of polysorbate 80 (0.3% v/v) with either 2 mg/ml or 5 mg/ml protein. Fresh solutions (glass vials, Type I, transparent) were frozen by three freeze/thaw cycles. After the thawing, samples were kept at 5 and 25° C. for up to 3 weeks and analysed by visual inspection. Samples without freezing were run in parallel as control. In a second study, the container closer compatibility was assessed by using Nalgene HDPE (more suitable for toxicological studies). In this case, only formulation at 5 mg/mL was analysed.
In these experiments, formulations with 0.03% polysorbate 80 were compared to formulations without polysorbate 80. The samples were incubated for 7 days at 50° C. […] All of the samples were then incubated for another 12 days.

Data set [2] is described as follows: Dynamic Light Scattering (DLS): particle size, Z-average, hydrodynamic diameter. Type of data set: physicochemical. The settings on record: 50 mM PB pH 7.5, 1.85% w/v PG, 0.03% v/v PS80; one month. The procedure: The principles for formulation ranking used in Table 3 were the loss of peptide purity (main area peak/total peak area) at accelerated conditions (purity loss≤3% per 1 week at 40° C., low risk; purity loss>5% week at 40° C.=high risk) and physical stability at 40 or 5° C. (Z-average<10 nm=low risk, >10 nm=medium risk; >100 nm=high risk).
The six selected formulations were used in a 1-month stability study at refrigerated (2-8° C.) and stressed conditions (37° C.). Samples were assessed at time zero, 2 weeks, and 4 weeks by RP-UPLC, DLS, Visual Inspection, Micro-Flow Imaging (MFI), Size Exclusion Chromatography-Multi-Angle Light Scattering (SEC-MALS).
Purity (RP-UPLC), aggregation (DLS), peptide concentration (A280), High order structure (SEC-MALS)(multiangle (laser) light scattering), Sub-visible particles (MFI), Osmolarity, Conformational stability (Circular dichroism (CD) spectroscopy) and pH tests were conducted. The following temperatures were tested: 5° C., 15° C.; 25° C., 40° C. and −80° C. The following time points were tested: 0, 2 weeks, 1, 2, 3, 6, 9, 12, 24 and 36 months.
In another set of experiments, the impact of sorbitol (0-250 mM), propylene glycol (0-2%), and phenol (0-2%) in a pH range 7-8.2 on the physical stability of MEDI0382 was explored. Physical stability was monitored using DLS (DynaPro plate reader, Wyatt) and the ThT assay.

Data set [3] in a line: MEDI0382 solubility studies (buffers, ionic strength, water, organic solvents, aqueous pH). Type of data set: physicochemical. The procedure:
The aqueous pH solubility of MEDI0382 was also assessed.

The procedure of data set [4]:
(§1) The solubility and pH stability of the GLP-1/glucagon agonist peptide MEDI0382 (FIG. 1) were studied. In particular, solubility was studied in different types of buffers, different buffer ionic strengths, pure water, and organic solvents. The aqueous pH solubility of MEDI0382 was also assessed. The chemical stability (as measured by reverse phase ultra performance liquid chromatography (RP-UPLC)) and secondary structure (as measured by Fourier transform infrared spectroscopy (FTIR) and UV circular dichoism spectroscopy (CD)) were also assessed at various pHs. Furthermore, the effect of pH on the kinetics of MEDI0382 aggregation were also assessed in a thioflavin T binding (ThT) assay.
The effect of excipients on fiber formation was analyzed by evaluating whether or not amino acids and divalent ions could prevent fiber formation at pH 7.5. […] The fiber formation was evaluated using a Thioflavin T binding assay (ThT) assay.
(§2) The fiber formation was again evaluated using a ThT assay. […] Chemical degradation associated with these excipients was also monitored for one month for samples kept at 5° C. and 40° C. using an RP-UPLC assay. […] Particle formation associated with these excipients was also monitored by visual inspection after shaking stress (800 rpm for 4 hours). […]

Data set [5] in a line: Container compatibility: syringe stability and adsorption to containers. Type of data set: physicochemical. The following applies: 50 mM Phosphate buffer, 1.85% (w/v) propylene glycol, pH 7.4. How it is done: The chemical stability of MEDI0382 was tested in 50 mM Phosphate buffer, 1.85% (w/v) of propylene glycol, pH 7.4.
This MEDI0382 formulation was stable in BD Plastipak syringes for at least 4 hours at room temperature.
However, an adsorption of the peptide to the containers at low levels of dosing (below 0.1 mg/ml) was identified. This MEDI0382 formulation was ruled out because the low doses of drug likely to be required to achieve a pharmacological (agonistic) effect could not feasibly be delivered in this way.

How the values of data set [6] were obtained:
as §1, with “assay. […]” for “assay.”
The six selected formulations were used in a 1-month stability study at refrigerated (2-8° C.) and stressed conditions (37° C.). Samples were assessed at time zero, 2 weeks, and 4 weeks by RP-UPLC, DLS, Visual Inspection, Micro-Flow Imaging (MFI), Size Exclusion Chromatography-Multi-Angle Light Scattering (SEC-MALS). […]
as §2
The source holds these as a separate data set.

Data set [7] in a line: Secondary structure by FTIR and UV circular dichroism. Type of data set: physicochemical.
Another data set deals with Staphylococcus aureus. In words: Preservative efficacy test (PET; Ph. Eur. / USP), S. aureus. The settings on record: 5.5 mg/mL MEDI0382 multi-dose formulation.

Method for Staphylococcus aureus: (§3) In preservative efficacy assays, a short study was performed whereby two microorganisms were used to assess the microbial efficacy of the prepared formulations (Staphylococcus aureus and E. coli). Samples were tested at t=0 (bulk) and t=1 month after storage at 25° C.
Preservative efficacy testing (PET) was also performed on 2 and 5 mg/ml MEDI0382 formulations containing 20 mM sodium phosphate buffer, 220 mM sorbitol, and m-Cresol (at the concentrations indicated in Table 35) at pH.
A total of 20 bulk formulations were prepared and tested in accordance with the European Pharmacopeia Edition 10.0 Section 5.1.3 and the United States Pharmacopeia 42 <51>.
Method for all microorganisms: as §3
A multivariate robustness study was carried out to investigate the impact of m-cresol content, sodium phosphate concentration, and m-cresol content on the preservative efficacy of the 5 mg/mL multi-dose formulation. […] A total of 20 bulk formulations were prepared and tested in accordance with the European Pharmacopeia Edition 10.0 Section 5.1.3 and the United States Pharmacopeia 42 <51>.

As to `Cc1cccc(O)c1` [Hedinger m-Cresol, m-Cresol], the “European criteria passed (PET)” value in the data set on all microorganisms (highest concentrations tested, S. aureus and E. coli) is “passed the more stringent European (“A”) criteria”.

For `CCCCCCCCCCCCCCCC(=O)N[C@@H](CCC(=O)NCCCC[C@H](NC(=O)[C@H](CC(=O)O)NC(=O)[C@H](CO)NC(=O)[C@@H](NC(=O)[C@H](Cc1ccccc1)NC(=O)[C@@H](NC(=O)CNC(=O)[C@H](CCC(N)=O)NC(=O)[C@H](CO)NC(=O)[C@@H](N)Cc1c[nH]cn1)[C@@H](C)O)[C@@H](C)O)C(=O)N[C@@H](CO)C(=O)N[C@@H](CCC(=O)O)C(=O)N[C@@H](Cc1ccc(O)cc1)C(=O)N[C@@H](CC(C)C)C(=O)N[C@@H](CC(=O)O)C(=O)N[C@@H](CO)C(=O)N[C@@H](CCC(=O)O)C(=O)N[C@@H](CCCNC(=N)N)C(=O)N[C@@H](C)C(=O)N[C@@H](CCCNC(=N)N)C(=O)N[C@@H](CC(=O)O)C(=O)N[C@@H](Cc1ccccc1)C(=O)N[C@H](C(=O)N[C@@H](C)C(=O)N[C@@H](Cc1c[nH]c2ccccc12)C(=O)N[C@@H](CC(C)C)C(=O)N[C@@H](CCC(=O)O)C(=O)N[C@@H](C)C(=O)NCC(=O)NCC(=O)O)C(C)C)C(=O)O` [MEDI0382], the gel formation result in [1] (0.03% polysorbate 80, pH 6.9, 7 days at 50° C.) is recorded as “turned into a solid gel”; in [1] (0.03% polysorbate 80, pH 8.3, 7 days at 50° C.), “did not”; in data set [1] (without polysorbate 80, pH 6.9, another 12 days), “turned into a soft gel”. Also, the visual inspection entry in [1] (50 mM PB pH 7.5, 1.85% w/v PG, 0.03% v/v PS80, 2-month storage) is listed as “gel-like-appearance”. For the same compound, the “Z-average values (DLS)” value in data set [2] was “increased sharply over the month at all temperatures, except at −80 °C”. The Organic solvent solubility entry in data set [3] is recorded as “Low”. Moreover, in data set [3], the Physical state entry is on record as “Amorphous powder, hygroscopic, sensitive”. In addition, the Preferable buffers solubility entry in [3] is “Sodium phosphate and TRIS”. Also, in [3] (buffers of different ionic strengths, read-out: Ranges of ionic strength solubility), the solubility is at least 25 mM. Besides, the “Aqueous solution pH solubility” value in [3] (pH 1 to 3 and 6 to 13) is “increases at pH 1 to 3 and 6 to 13”; in data set [3] (pH 4.1 to 4.5), “Insoluble at pH 4.1 to 4.5, solubility”. The “optimal pH for physical stability” value in [4] is over 7.8. Further, the “pH impact on aggregation kinetics: lag time” value in [4] (pH 8) was “kinetics (higher lag time at pH 8 (93 hours),”. In addition, the “concentration at which adsorption of the peptide to the containers was identified” value in [5] is “below 0.1 mg/ml”. The “time stable in BD Plastipak syringes” value in data set [5] (room temperature) is given as “at least 4 hours”. The “pH at which both physical and chemical stability are improved” value in [6] was at least 8. Besides, the “pH impact on secondary structure” value in data set [7] is recorded as “increases α-helix in alkaline conditions (7 to 8)”.

Turning to `Cc1cccc(O)c1` [meta-cresol], in the data set with all microorganisms, the “minimum meta-cresol needed to achieve Ph. Eur. Criteria A” value is ≥ 0.34 % (w/v) and the “minimum meta-cresol needed to consistently achieve Ph. Eur. Criteria B” value is reported as ≥ 0.27 % (w/v). Further, the “m-cresol concentration at which USP and EP criteria A are consistently met for all microorganisms except Staphylococcus aureus (EP criteria B met)” value in the data set on all microorganisms (5.5 mg/mL MEDI0382 multi-dose formulation) is given as ≥ 0.24 % (w/v). Further, in the data set on Staphylococcus aureus, the “m-cresol concentration required for a log reduction consistently greater than 3 at 24 hours” value is recorded as ≥ 0.28 % (w/v).

In the case of `Oc1ccccc1` [phenol], the results for the “phenol concentration needed to achieve the less stringent European (“B”) criteria” value in the data set with all microorganisms (with 1 mg/mL MEDI0382) and in the data set on all microorganisms (with 2 mg/mL MEDI0382) were “at least 0.44 % w/v” and “at least 0.54 % w/v”, respectively.
